Laboratory results published in patent US5151442A, “Chroman derivative active on the central nervous system, their method of preparation and pharmaceutical compositions in which they are present” (Sanofi, priority 1988, dated 1992).
Where a name gives a salt, the structure may show the parent alone.

Test system: Female mice (Iffa Credo)
Experiment: forced swimming test according to Porsolt et al. (immobility times over 4 minutes, 2nd to 6th minute)
Assay type: in vivo
Settings: Mus musculus, ip, read-out: % inhibition (of the immobility times compared with control animals); for inhibition in vivo at 0.06 mg/kg: 0.06 mg/kg i.p.; for inhibition in vivo at 0.125 mg/kg: 0.125 mg/kg i.p.; for inhibition in vivo at 0.25 mg/kg: 0.25 mg/kg i.p.
Protocol: Thus the products according to the invention were subjected to the forced swimming test according to Porsolt et al. (Archives Internationales de Pharmacodynamie, 1977, 229, 327-336). Female mice (Iffa Credo) weighing 22-24 g are immersed for a period of 6 minutes in a beaker containing 800 ml of water at 24°±1° C. The immobility times are measured over 4 minutes from the 2nd to the 6th minute. The results are expressed as the percentage inhibition of the immobility times of the treated animals compared with the control animals.

Row | SMILES | inhibition in vivo at 0.06 mg/kg [%] | inhibition in vivo at 0.125 mg/kg [%] | inhibition in vivo at 1 mg/kg (1 mg/kg i.p.) [%] | inhibition in vivo at 0.25 mg/kg [%]
1 | CN(C)CCS[C@@H]1c2cc(C#N)ccc2OC(C)(C)[C@H]1O (relative stereo) [SR 44652, Trans-6-cyano-2,2-dimethyl-4-(2-dimethylaminoethylthio)-3-hydroxychroman hydrochloride] | 25 | 27 | – | –
2 | CC1(C)Oc2ccc(C#N)cc2[C@@H](Nc2ccccc2)[C@@H]1O (relative stereo) [SR 46142 A] | 40 | – | – | –
3 | CC1(C)C=C(Sc2ccc(Cl)cc2)c2cc(C#N)ccc2O1 [SR 44554, 4-(4-Chlorophenylthio)-6-cyano-2,2-dimethyl-2H-chromene] | 33 | – | – | –
4 | CC1(C)Oc2ccc(C#N)cc2[C@@H](NS(=O)(=O)c2ccccc2C(F)(F)F)[C@@H]1O (relative stereo) [SR 44665, Trans-6-cyano-2,2-dimethyl-3-hydroxy-4-(2-trifluoromethylbenzene-1-sulfonamido)chroman] | 24 | – | – | –
5 | COC(=O)c1ccccc1N[C@@H]1c2cc(C#N)ccc2OC(C)(C)[C@H]1O (relative stereo) [SR 44588, Trans-6-cyano-2,2-dimethyl-3-hydroxy-4-(2-methoxycarbonylanilino)chroman] | 20 | 27 | – | –
6 | CN(C)S(=O)(=O)N[C@@H]1c2cc(C#N)ccc2OC(C)(C)[C@H]1O (relative stereo) [SR 44666, Trans-6-cyano-2,2-dimethyl-4-(N,N-dimethylsulfamoylamino)-3-hydroxychroman] | 21 | – | 23 | –
7 | CC1(C)Oc2ccc(C#N)cc2[C@@H](S(=O)(=O)C2CCCCC2)[C@@H]1O (relative stereo) [SR 44708, Trans-6-cyano-4-cyclohexylsulfonyl-2,2-dimethyl-3-hydroxychroman] | 21 | – | – | 37
8 | CC1(C)Oc2ccc(C#N)cc2[C@@H](Nc2ccc(F)cc2)[C@@H]1O (relative stereo) [SR 46143] | 27 | – | – | –
9 | CC1(C)Oc2ccc(C#N)cc2[C@@H](Nc2ccc(Cl)cc2)[C@@H]1O (relative stereo) [SR 44546, Trans-4-(4-chloroanilino)-6-cyano-2,2-dimethyl-3-hydroxychroman] | 16 | – | – | 44
10 | CC1(C)Oc2ccc(C#N)cc2[C@@H](Nc2ccc(C(F)(F)F)cc2)[C@@H]1O (relative stereo) [SR 46276] | 40 | – | – | –
